Laboratory results published in ChEMBL document CHEMBL1933009, “SAR studies on the central phenyl ring of substituted biphenyl oxazolidinone-potent CETP inhibitors” (Bioorg Med Chem Lett, 2012).

Columns and labels:
[1] = molecular target: T1, Cholesteryl ester transfer protein (Homo sapiens, UniProt P11597); assay: Inhibition of CETP-mediated neutral lipid transfer by fluorometric analysis
T1 sequence (P11597 whole entry): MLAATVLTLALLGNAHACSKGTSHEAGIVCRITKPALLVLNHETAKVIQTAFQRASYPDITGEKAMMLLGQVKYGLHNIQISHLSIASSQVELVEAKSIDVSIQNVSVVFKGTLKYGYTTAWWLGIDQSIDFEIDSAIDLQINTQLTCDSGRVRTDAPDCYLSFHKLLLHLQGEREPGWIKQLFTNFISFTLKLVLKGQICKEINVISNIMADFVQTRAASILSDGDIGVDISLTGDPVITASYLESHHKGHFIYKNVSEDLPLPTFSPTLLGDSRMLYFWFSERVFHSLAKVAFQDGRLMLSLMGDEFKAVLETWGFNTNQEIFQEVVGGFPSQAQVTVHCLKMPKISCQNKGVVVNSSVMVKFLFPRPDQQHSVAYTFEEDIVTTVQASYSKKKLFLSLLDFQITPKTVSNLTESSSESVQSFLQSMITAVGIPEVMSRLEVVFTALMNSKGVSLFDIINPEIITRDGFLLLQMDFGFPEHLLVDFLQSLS

Mus musculus = assay: Cardioprotective activity in transgenic B6 mouse expressing cynomolgus monkey CETP assessed as increase in HDL-cholesterol level at 10 mg/kg, po BID measured after 24 hrs of first dose; format: functional

SMILES: COc1cc(F)c(C(C)C)cc1-c1ccc(C(C)(C)O)cc1CN1C(=O)O[C@H](c2cc(C(F)(F)F)cc(C(F)(F)F)c2)[C@@H]1C
- IC50 [1]: 0.0718 µM

SMILES: COc1cc(F)c(C(C)C)cc1-c1ccc(S(=O)(=O)C(F)(F)F)cc1CN1C(=O)O[C@H](c2cc(C(F)(F)F)cc(C(F)(F)F)c2)[C@@H]1C
- IC50 [1]: 0.0271 µM

SMILES: COc1cc(F)c(C(C)C)cc1-c1ccc(C(F)(F)F)cc1CN1C(=O)O[C@H](c2cc(C(F)(F)F)cc(C(F)(F)F)c2)[C@@H]1C [ANACETRAPIB]
- Activity (Mus musculus): 28 mg/dL

SMILES: COc1cc(F)c(C(C)C)cc1-c1ccc(S(=O)(=O)C(C)C)cc1CN1C(=O)O[C@H](c2cc(C(F)(F)F)cc(C(F)(F)F)c2)[C@@H]1C
- IC50 [1]: 2.6 µM

SMILES: COc1cc(F)c(C(C)C)cc1-c1ccc(C)cc1CN1C(=O)O[C@H](c2cc(C(F)(F)F)cc(C(F)(F)F)c2)[C@@H]1C
- Activity (Mus musculus): 13.8 mg/dL
- IC50 [1]: 0.0167 µM

SMILES: COc1cc(F)c(C(C)C)cc1-c1ccccc1CN1C(=O)O[C@H](c2cc(C(F)(F)F)cc(C(F)(F)F)c2)[C@@H]1C
- IC50 [1]: 0.0312 µM

SMILES: COc1cc(F)c(C(C)C)cc1-c1ccc(C2CC2)cc1CN1C(=O)O[C@H](c2cc(C(F)(F)F)cc(C(F)(F)F)c2)[C@@H]1C
- Activity (Mus musculus): 20.6 mg/dL
- IC50 [1]: 0.0248 µM

SMILES: COc1cc(F)c(C(C)C)cc1-c1ccc(C(C)(C)F)cc1CN1C(=O)O[C@H](c2cc(C(F)(F)F)cc(C(F)(F)F)c2)[C@@H]1C
- Activity (Mus musculus): 23.2 mg/dL
- IC50 [1]: 0.018 µM

SMILES: COc1cc(F)c(C(C)C)cc1-c1ccc(SC)cc1CN1C(=O)O[C@H](c2cc(C(F)(F)F)cc(C(F)(F)F)c2)[C@@H]1C
- Activity (Mus musculus): 16.4 mg/dL
- IC50 [1]: 0.0162 µM

SMILES: COc1cc(F)c(C(C)C)cc1-c1ccc(C#N)cc1CN1C(=O)O[C@H](c2cc(C(F)(F)F)cc(C(F)(F)F)c2)[C@@H]1C
- Activity (Mus musculus): 14.8 mg/dL
- IC50 [1]: 0.0233 µM

SMILES: COc1cc(F)c(C(C)C)cc1-c1ccc([N+](=O)[O-])cc1CN1C(=O)O[C@H](c2cc(C(F)(F)F)cc(C(F)(F)F)c2)[C@@H]1C
- Activity (Mus musculus): 21.5 mg/dL
- IC50 [1]: 0.0133 µM

SMILES: COc1cc(F)c(C(C)C)cc1-c1ccc(C(C)C)cc1CN1C(=O)O[C@H](c2cc(C(F)(F)F)cc(C(F)(F)F)c2)[C@@H]1C
- IC50 [1]: 0.0541 µM

SMILES: COc1cc(F)c(C(C)C)cc1-c1ccc(Br)cc1CN1C(=O)O[C@H](c2cc(C(F)(F)F)cc(C(F)(F)F)c2)[C@@H]1C
- Activity (Mus musculus): 23 mg/dL
- IC50 [1]: 0.0198 µM

SMILES: COc1cc(F)c(C(C)C)cc1-c1ccc(SC(C)C)cc1CN1C(=O)O[C@H](c2cc(C(F)(F)F)cc(C(F)(F)F)c2)[C@@H]1C
- IC50 [1]: 0.689 µM

SMILES: COc1cc(F)c(C(C)C)cc1-c1ccc(S(C)(=O)=O)cc1CN1C(=O)O[C@H](c2cc(C(F)(F)F)cc(C(F)(F)F)c2)[C@@H]1C
- IC50 [1]: 0.0335 µM

SMILES: CCCSc1ccc(-c2cc(C(C)C)c(F)cc2OC)c(CN2C(=O)O[C@H](c3cc(C(F)(F)F)cc(C(F)(F)F)c3)[C@@H]2C)c1
- IC50 [1]: 1.23 µM

SMILES: COc1cc(F)c(C(C)C)cc1-c1ccc(C(C)(C)C)cc1CN1C(=O)O[C@H](c2cc(C(F)(F)F)cc(C(F)(F)F)c2)[C@@H]1C
- Activity (Mus musculus): 21 mg/dL
- IC50 [1]: 0.0249 µM

SMILES: COc1cc(F)c(C(C)C)cc1-c1ccc(Cl)cc1CN1C(=O)O[C@H](c2cc(C(F)(F)F)cc(C(F)(F)F)c2)[C@@H]1C
- Activity (Mus musculus): 12.7 mg/dL
- IC50 [1]: 0.0165 µM

SMILES: COc1cc(F)c(C(C)C)cc1-c1ccc(I)cc1CN1C(=O)O[C@H](c2cc(C(F)(F)F)cc(C(F)(F)F)c2)[C@@H]1C
- IC50 [1]: 0.0235 µM

SMILES: COc1cc(F)c(C(C)C)cc1-c1ccc(SC(F)(F)F)cc1CN1C(=O)O[C@H](c2cc(C(F)(F)F)cc(C(F)(F)F)c2)[C@@H]1C
- Activity (Mus musculus): 12.4 mg/dL
- IC50 [1]: 0.0196 µM

SMILES: COc1cc(F)c(C(C)C)cc1-c1ccc(F)cc1CN1C(=O)O[C@H](c2cc(C(F)(F)F)cc(C(F)(F)F)c2)[C@@H]1C
- Activity (Mus musculus): 8 mg/dL
- IC50 [1]: 0.025 µM

SMILES: COc1cc(F)c(C(C)C)cc1-c1ccc(N)cc1CN1C(=O)O[C@H](c2cc(C(F)(F)F)cc(C(F)(F)F)c2)[C@@H]1C
- IC50 [1]: 0.296 µM

SMILES: COc1cc(F)c(C(C)C)cc1-c1ccc(C2=CCCC2)cc1CN1C(=O)O[C@H](c2cc(C(F)(F)F)cc(C(F)(F)F)c2)[C@@H]1C
- IC50 [1]: 0.254 µM

SMILES: CCCS(=O)(=O)c1ccc(-c2cc(C(C)C)c(F)cc2OC)c(CN2C(=O)O[C@H](c3cc(C(F)(F)F)cc(C(F)(F)F)c3)[C@@H]2C)c1
- IC50 [1]: 6.93 µM
